Experimental data from ChEMBL document CHEMBL5653631, “A Potent and Selective ULK1 Inhibitor Suppresses Autophagy and Sensitizes Cancer Cells to Nutrient Stress” (iScience, 2018).
Each block holds one compound with its values, some of them ahead of it.

Experiments:
[1] = molecular target: Rho-associated protein kinase 1 (Homo sapiens) (UniProt Q13464); assay: Inhibition of human recombinant ROCK1 at 500 nM related to control ULK1
[2] = molecular target: Ephrin type-A receptor 2 (Homo sapiens) (UniProt P29317); assay: Inhibition of human recombinant EphA2 at 500 nM in presence of ATP by radiometric assay relative to control
Ephrin type-A receptor 2 (Homo sapiens), sequence (P29317 whole entry): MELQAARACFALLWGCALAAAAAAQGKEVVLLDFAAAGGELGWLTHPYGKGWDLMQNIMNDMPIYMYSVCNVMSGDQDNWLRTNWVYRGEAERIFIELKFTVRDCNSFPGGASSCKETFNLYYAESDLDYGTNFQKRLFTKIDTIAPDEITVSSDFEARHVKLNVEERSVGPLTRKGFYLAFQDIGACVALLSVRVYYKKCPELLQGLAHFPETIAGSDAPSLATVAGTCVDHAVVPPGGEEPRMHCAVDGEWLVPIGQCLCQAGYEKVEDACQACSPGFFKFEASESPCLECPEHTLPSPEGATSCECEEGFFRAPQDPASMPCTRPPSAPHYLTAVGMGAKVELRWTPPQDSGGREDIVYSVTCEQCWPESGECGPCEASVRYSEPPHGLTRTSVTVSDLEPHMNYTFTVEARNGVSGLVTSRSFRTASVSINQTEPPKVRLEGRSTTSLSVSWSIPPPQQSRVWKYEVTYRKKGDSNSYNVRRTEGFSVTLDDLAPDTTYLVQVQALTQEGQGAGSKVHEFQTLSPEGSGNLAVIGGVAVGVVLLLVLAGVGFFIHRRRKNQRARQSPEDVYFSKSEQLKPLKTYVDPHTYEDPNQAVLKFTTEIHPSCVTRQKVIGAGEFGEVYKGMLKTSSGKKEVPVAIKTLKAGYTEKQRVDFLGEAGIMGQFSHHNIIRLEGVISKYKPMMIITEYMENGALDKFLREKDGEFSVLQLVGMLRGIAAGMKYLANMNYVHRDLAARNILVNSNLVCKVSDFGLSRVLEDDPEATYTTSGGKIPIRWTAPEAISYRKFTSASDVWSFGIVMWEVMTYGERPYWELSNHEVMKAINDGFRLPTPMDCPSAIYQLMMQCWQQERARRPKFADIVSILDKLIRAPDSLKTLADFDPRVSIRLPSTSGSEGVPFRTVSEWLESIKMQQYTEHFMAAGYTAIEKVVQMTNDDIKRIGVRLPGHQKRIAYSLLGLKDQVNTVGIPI

[3] = molecular target: Receptor tyrosine-protein kinase erbB-2 (Homo sapiens) (UniProt P04626); assay: Inhibition of human recombinant ErbB2 at 500 nM related to control ULK1
[4] = molecular target: Maternal embryonic leucine zipper kinase (Homo sapiens) (UniProt Q14680); assay: Inhibition of human recombinant MELK at 500 nM related to control ULK1
[5] = molecular target: Serine/threonine-protein kinase SIK2 (Homo sapiens) (UniProt Q9H0K1); assay: Inhibition of human recombinant QIK at 500 nM related to control ULK1
Serine/threonine-protein kinase SIK2 (Homo sapiens), sequence (Q9H0K1 whole entry, looked up): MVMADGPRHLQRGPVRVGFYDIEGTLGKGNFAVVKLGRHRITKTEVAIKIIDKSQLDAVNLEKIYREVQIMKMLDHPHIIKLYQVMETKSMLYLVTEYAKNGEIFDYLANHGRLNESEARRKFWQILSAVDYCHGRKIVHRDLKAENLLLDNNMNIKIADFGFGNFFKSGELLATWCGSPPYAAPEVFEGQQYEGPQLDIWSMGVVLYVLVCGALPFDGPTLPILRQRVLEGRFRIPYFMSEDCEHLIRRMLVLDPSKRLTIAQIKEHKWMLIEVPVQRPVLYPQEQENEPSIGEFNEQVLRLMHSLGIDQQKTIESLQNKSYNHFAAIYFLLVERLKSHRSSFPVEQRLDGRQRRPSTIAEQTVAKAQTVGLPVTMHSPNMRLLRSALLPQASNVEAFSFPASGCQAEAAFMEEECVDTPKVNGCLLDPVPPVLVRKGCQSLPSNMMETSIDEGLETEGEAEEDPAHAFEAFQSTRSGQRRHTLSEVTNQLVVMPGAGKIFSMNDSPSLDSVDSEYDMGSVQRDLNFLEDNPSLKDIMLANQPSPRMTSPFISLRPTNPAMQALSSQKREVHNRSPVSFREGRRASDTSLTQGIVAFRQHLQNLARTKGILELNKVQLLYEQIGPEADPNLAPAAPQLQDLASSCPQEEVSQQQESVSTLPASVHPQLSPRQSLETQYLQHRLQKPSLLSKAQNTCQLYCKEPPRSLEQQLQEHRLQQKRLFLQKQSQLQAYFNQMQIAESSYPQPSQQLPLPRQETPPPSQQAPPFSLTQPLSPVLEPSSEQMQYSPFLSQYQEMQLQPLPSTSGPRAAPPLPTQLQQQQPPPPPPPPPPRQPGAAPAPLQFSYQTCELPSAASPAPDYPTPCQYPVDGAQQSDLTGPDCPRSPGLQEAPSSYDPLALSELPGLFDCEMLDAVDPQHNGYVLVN

[6] = molecular target: Calcium/calmodulin-dependent protein kinase kinase 1 (Homo sapiens) (UniProt Q8N5S9); assay: Inhibition of human recombinant CaMKK1 at 15 nM related to control ULK1
[7] = molecular target: Casein kinase II subunit alpha (Homo sapiens) (UniProt P68400); assay: Inhibition of human recombinant CK2a1 at 15 nM in presence of ATP by radiometric assay relative to control
Casein kinase II subunit alpha (Homo sapiens), sequence (P68400 whole entry, looked up): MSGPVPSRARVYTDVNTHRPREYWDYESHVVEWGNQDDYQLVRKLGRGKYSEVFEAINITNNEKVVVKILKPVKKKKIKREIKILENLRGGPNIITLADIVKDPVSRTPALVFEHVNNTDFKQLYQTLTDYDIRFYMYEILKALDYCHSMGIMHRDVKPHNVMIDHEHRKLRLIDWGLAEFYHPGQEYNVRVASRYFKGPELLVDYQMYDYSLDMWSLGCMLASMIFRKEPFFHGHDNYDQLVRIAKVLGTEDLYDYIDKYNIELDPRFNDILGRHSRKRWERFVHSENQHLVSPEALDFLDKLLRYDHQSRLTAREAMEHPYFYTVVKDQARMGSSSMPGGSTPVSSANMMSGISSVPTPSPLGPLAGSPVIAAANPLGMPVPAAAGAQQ

[8] = molecular target: Rho-associated protein kinase 2 (Homo sapiens) (UniProt O75116); assay: Inhibition of human recombinant ROCK2 at 15 nM related to control ULK1
[9] = molecular target: Myosin light chain kinase, smooth muscle (Homo sapiens) (UniProt Q15746); assay: Inhibition of human recombinant smMLCK at 15 nM related to control ULK1
[10] = molecular target: Fibroblast growth factor receptor 4 (Homo sapiens) (UniProt P22455); assay: Inhibition of human recombinant FGFR4 at 15 nM related to control ULK1
Fibroblast growth factor receptor 4 (Homo sapiens), sequence (P22455 22-802 limits assumed): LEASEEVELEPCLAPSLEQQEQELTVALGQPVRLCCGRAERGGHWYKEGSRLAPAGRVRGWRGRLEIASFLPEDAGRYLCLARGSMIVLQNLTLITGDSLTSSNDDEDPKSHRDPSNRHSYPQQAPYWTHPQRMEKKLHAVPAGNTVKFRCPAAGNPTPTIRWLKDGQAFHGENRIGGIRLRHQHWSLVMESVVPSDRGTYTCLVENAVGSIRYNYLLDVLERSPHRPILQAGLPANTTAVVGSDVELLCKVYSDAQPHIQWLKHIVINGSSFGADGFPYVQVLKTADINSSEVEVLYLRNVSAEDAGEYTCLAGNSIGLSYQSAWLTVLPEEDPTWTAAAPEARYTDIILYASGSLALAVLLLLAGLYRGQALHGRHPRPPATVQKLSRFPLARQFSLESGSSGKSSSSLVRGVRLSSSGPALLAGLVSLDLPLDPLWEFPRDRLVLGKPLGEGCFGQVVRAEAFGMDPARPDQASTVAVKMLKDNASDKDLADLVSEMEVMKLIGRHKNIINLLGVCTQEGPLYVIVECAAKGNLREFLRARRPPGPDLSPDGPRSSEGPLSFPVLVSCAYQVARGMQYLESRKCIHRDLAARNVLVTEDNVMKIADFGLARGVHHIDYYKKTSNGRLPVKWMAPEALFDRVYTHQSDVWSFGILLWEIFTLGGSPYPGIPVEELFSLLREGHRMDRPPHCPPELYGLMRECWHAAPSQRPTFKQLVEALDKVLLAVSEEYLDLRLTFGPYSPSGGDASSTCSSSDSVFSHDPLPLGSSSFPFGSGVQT

[11] = molecular target: T1, Serine/threonine-protein kinase 3 (Homo sapiens) (UniProt Q13188); assay: Inhibition of human recombinant MST2 at 15 nM in presence of ATP by radiometric assay relative to control
T1 sequence (whole entry): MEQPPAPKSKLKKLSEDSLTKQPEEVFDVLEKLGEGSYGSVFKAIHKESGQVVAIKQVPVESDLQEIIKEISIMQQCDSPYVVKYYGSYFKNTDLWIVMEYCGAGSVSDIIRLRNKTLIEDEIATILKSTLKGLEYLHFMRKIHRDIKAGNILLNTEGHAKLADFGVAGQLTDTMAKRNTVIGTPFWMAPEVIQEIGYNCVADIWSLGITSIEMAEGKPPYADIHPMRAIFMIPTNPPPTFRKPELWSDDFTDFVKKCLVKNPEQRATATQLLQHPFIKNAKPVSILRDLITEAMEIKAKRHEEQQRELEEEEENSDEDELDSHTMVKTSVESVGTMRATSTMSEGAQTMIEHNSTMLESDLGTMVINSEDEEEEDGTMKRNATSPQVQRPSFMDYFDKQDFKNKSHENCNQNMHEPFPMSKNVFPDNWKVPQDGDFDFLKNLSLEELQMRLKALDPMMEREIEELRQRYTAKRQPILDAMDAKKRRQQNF

[12] = molecular target: T2, Tribbles homolog 2 (Homo sapiens) (UniProt Q92519); assay: Inhibition of human recombinant Trb2 at 15 nM in presence of ATP by radiometric assay relative to control
T2 sequence (whole entry): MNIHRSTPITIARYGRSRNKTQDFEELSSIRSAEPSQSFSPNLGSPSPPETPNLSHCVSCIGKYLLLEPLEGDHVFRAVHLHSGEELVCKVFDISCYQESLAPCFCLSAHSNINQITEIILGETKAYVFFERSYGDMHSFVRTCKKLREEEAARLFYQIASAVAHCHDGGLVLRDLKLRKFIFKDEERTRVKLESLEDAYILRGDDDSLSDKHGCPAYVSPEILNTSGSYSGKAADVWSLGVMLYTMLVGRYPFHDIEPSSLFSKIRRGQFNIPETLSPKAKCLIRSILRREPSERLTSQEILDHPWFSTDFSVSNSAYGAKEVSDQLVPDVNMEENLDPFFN

[13] = molecular target: Serine/threonine-protein kinase 33 (Homo sapiens) (UniProt Q9BYT3); assay: Inhibition of human recombinant STK33 at 15 nM related to control ULK1
Serine/threonine-protein kinase 33 (Homo sapiens), sequence (Q9BYT3 whole entry, looked up): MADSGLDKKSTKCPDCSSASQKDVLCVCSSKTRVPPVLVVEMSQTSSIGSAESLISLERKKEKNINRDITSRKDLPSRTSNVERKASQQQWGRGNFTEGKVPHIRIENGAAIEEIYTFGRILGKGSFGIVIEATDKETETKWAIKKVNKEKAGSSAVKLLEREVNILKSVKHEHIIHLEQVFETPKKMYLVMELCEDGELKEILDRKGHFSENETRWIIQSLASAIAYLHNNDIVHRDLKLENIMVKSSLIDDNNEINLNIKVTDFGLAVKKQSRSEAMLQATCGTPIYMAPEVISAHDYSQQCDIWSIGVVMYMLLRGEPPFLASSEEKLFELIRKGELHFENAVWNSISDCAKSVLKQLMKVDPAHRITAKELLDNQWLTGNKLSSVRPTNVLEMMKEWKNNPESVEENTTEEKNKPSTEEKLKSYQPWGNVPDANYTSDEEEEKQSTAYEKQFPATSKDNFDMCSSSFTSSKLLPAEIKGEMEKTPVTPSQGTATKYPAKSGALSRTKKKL

[14] = molecular target: T3, NUAK family SNF1-like kinase 1 (Homo sapiens) (UniProt O60285); assay: Inhibition of human recombinant NuaK1 at 15 nM related to control ULK1
T3 sequence (whole entry): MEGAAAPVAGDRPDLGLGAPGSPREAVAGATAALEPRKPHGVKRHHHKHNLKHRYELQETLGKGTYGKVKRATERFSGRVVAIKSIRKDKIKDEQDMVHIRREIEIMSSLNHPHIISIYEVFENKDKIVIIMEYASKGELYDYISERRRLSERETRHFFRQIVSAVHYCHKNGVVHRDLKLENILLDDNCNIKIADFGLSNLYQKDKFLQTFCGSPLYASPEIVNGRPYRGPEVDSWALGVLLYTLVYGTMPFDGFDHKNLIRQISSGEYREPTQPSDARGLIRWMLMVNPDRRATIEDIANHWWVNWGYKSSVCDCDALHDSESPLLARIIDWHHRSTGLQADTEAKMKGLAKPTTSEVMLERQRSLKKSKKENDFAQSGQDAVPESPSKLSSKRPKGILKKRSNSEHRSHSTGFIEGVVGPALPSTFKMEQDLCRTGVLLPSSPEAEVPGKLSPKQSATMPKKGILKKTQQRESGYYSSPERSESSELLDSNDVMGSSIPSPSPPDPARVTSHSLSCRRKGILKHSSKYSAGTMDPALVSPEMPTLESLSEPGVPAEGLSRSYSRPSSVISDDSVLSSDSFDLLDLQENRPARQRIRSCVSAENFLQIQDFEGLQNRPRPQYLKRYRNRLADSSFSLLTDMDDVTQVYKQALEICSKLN

[15] = molecular target: Mitogen-activated protein kinase 10 (Homo sapiens) (UniProt P53779); assay: Inhibition of human recombinant JNK3 at 40 nM in presence of ATP by radiometric assay relative to control
[16] = molecular target: Serine/threonine-protein kinase PLK3 (Homo sapiens) (UniProt Q9H4B4); assay: Inhibition of human recombinant PLK3 at 40 nM in presence of ATP by radiometric assay relative to control
[17] = molecular target: Serine/threonine-protein kinase pim-1 (Homo sapiens) (UniProt P11309); assay: Inhibition of human recombinant PIM1 at 40 nM in presence of ATP by radiometric assay relative to control
Serine/threonine-protein kinase pim-1 (Homo sapiens), sequence (P11309 whole entry, looked up): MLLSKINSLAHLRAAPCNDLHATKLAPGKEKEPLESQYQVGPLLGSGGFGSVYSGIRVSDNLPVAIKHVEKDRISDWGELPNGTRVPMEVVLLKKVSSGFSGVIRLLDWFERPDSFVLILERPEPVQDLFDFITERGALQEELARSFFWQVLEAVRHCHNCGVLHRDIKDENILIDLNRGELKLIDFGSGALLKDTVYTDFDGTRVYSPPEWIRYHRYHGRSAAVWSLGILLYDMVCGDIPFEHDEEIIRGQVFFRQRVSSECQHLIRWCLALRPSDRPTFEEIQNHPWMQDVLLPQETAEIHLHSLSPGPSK

[18] = molecular target: Receptor-type tyrosine-protein kinase FLT3 (Homo sapiens) (UniProt P36888); assay: Inhibition of human recombinant FLT3 at 40 nM related to control ULK1
Receptor-type tyrosine-protein kinase FLT3 (Homo sapiens), sequence (P36888 whole entry): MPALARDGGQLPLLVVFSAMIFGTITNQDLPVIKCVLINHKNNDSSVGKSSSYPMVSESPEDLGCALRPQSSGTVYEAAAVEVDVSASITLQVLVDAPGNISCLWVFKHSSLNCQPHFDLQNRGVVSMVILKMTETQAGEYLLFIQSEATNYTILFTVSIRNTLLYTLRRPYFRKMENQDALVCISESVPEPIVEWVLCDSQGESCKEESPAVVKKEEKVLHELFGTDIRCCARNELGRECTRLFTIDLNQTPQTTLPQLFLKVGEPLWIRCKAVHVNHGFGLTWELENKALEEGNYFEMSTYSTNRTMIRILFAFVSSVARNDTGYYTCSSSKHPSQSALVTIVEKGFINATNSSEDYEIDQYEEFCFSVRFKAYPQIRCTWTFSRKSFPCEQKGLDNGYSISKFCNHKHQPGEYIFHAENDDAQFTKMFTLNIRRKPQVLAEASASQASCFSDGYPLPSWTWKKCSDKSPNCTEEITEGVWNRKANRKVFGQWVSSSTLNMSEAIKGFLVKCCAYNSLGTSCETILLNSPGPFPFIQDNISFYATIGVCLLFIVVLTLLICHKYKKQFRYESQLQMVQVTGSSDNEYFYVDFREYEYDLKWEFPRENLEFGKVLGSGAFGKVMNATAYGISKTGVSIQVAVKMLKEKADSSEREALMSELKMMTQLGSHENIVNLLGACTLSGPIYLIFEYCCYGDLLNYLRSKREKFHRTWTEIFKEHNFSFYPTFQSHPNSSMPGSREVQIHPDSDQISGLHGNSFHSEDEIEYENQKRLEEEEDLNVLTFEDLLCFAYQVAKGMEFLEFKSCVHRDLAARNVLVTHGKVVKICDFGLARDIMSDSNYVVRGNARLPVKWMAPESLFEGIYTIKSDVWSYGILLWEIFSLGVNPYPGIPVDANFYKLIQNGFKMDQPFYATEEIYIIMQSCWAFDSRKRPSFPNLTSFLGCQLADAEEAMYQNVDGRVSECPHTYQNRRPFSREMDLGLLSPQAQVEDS

[19] = molecular target: Interferon-induced, double-stranded RNA-activated protein kinase (Homo sapiens) (UniProt P19525); assay: Inhibition of human recombinant PKR at 40 nM related to control ULK1
[20] = molecular target: Serine/threonine-protein kinase SIK1 (Homo sapiens) (UniProt P57059); assay: Inhibition of human recombinant SIK at 40 nM in presence of ATP by radiometric assay relative to control

fold change (FC) [1]: 0
inhibition [2]: 2%
fold change (FC) [3]: 0
fold change (FC) [4]: 0
fold change (FC) [5]: 0
Structure (SMILES): CNC(=O)c1ccccc1Oc1nc(Nc2cc(OC)c(OC)c(OC)c2)ncc1Br

fold change (FC) [6]: 0
inhibition [7]: 0%
fold change (FC) [8]: 0
fold change (FC) [9]: 0
fold change (FC) [10]: 0
inhibition [11]: 3%
inhibition [12]: 36%
fold change (FC) [13]: 0.18
fold change (FC) [14]: 0.31
Structure (SMILES): CC(C)[C@H](NC(=O)c1cc(-c2cnn3cc(-c4ccc(OCCN5CCCCC5)cc4)cnc23)cs1)C(F)(F)F

inhibition [15]: 0%
inhibition [16]: 0%
inhibition [17]: 5%
fold change (FC) [18]: 0.26
fold change (FC) [19]: 0
inhibition [20]: 20%
Structure (SMILES): O=C(N[C@@H](C1CC1)C(F)(F)F)c1cc(-c2cnn3cc(-c4ccc(F)cc4)cnc23)cs1
